Measurements reported in article PMC7356696, “Synthesis, Antimicrobial Activity and Molecular Docking of Novel Thiourea Derivatives Tagged with Thiadiazole, Imidazole and Triazine Moieties as Potential DNA Gyrase and Topoisomerase IV Inhibitors” (Molecules, 2020).
In brackets after ≈: the same amount, converted by molar mass.

Legend:
[1] = tested on: Pseudomonas aeruginosa ATCC 27853; test: MIC, modified agar well diffusion method; assay type: cell-based; conditions: ATCC27853, P. aeruginosa ATCC 27853, read-out: MIC (Mean ± SEM)
Source text: (§1) The antimicrobial activity of all synthesized compounds 2–13 was screened against a panel of two Gram-positive bacteria (Staphylococcus aureus ATCC 29213 and Bacillus subtilis ATCC 6633), two Gram-negative bacteria (Escherichia coli ATCC 25922, Pseudomonas aeruginosa ATCC 27853) and two fungi (Candida albicans ATCC 10231 and Aspergillus flavus ATCC 46283) using the agar well diffusion method. Ciprofloxacin and clotrimazole were used as antibacterial and antifungal standards, respectively. The results of this study were recorded as the average diameter of the inhibition zones (IZ) in Table 1. […] Additionally, the promising activity against S. aureus was observed from compounds 9, 12 and 13, however against B. subtilis from compounds 12 and 13.
(§2) The antimicrobial assay was performed in vitro for the target compounds 2–13 against Staphylococcus aureus ATCC 29213, Bacillus subtilis ATCC 6633 as Gram-positive bacteria, Escherichia coli ATCC 25922, Pseudomonas aeruginosa ATCC 27853 as Gram-negative bacteria and Candida albicans ATCC 10231, Aspergillus flavus ATCC 46283 as fungi. At the first, 100 μL of the test bacteria/fungi were grown in 10 mL of fresh media until they reached a count of approximately 10^8 cells/ml for bacteria or 10^5 cells/mL for fungi. One milliliter of each sample (at 0.5 mg/mL) was added to each well (10 mm diameter holes cut in the agar gel). The plates were incubated for 24 h at 37 °C (for bacteria and yeast) and for 72 h at 27 °C (for filamentous fungi), each test was repeated three times. After incubation, the microorganism’s growth was observed. Ciprofloxacin and clotrimazole were used as standard antibacterial and antifungal drugs, respectively. The resulting inhibition zone diameters were measured in millimeters using the diffusion technique. […] The different concentrations (triplicate) of each compound were tested and compared with standard drugs.

[2] = tested on: Candida albicans ATCC 10231; test: MIC, modified agar well diffusion method; assay type: cell-based; conditions: ATCC10231, C. albicans ATCC 10231, read-out: MIC (Mean ± SEM)
Source text: as §1, §2

[3] = tested on: Staphylococcus aureus ATCC 29213; test: MIC, modified agar well diffusion method; assay type: cell-based; conditions: ATCC29213, S. aureus ATCC 29213, read-out: MIC (Mean ± SEM)
Source text: as §1, §2

[4] = tested on: Aspergillus flavus ATCC 46283; test: MIC, modified agar well diffusion method; assay type: cell-based; conditions: ATCC46283, A. flavus ATCC 46283, read-out: MIC (Mean ± SEM)
Source text: as §1, §2

[5] = tested on: Escherichia coli ATCC 25922; test: MIC, modified agar well diffusion method; assay type: cell-based; conditions: ATCC25922, E. coli ATCC 25922, read-out: MIC (Mean ± SEM)
Source text: as §1, §2

[6] = tested on: Bacillus subtilis ATCC 6633; test: MIC, modified agar well diffusion method; assay type: cell-based; conditions: ATCC6633, B. subtilis ATCC 6633, read-out: MIC (Mean ± SEM)
Source text: as §1, §2

[7] = tested on: Staphylococcus aureus ATCC 29213; test: Agar well diffusion, inhibition zone; assay type: cell-based; set-up: dose or concentration left out as unconfirmed; conditions: ATCC29213, S. aureus ATCC 29213, NA = No Activity, read-out: Mean Diameter of Inhibition Zone (Mean ± SEM)
Source text: as §1
as §2, with “One milliliter of each sample (at 0.5 mg/mL) was added to each well (10 mm diameter holes cut in the agar gel).” left out

[8] = tested on: Bacillus subtilis ATCC 6633; test: Agar well diffusion, inhibition zone; assay type: cell-based; set-up: dose or concentration left out as unconfirmed; conditions: ATCC6633, B. subtilis ATCC 6633, NA = No Activity, read-out: Mean Diameter of Inhibition Zone (Mean ± SEM)
Source text: as §1
as §2, with “One milliliter of each sample (at 0.5 mg/mL) was added to each well (10 mm diameter holes cut in the agar gel).” left out

E. coli Topoisomerase IV = target: T1, E. coli Topoisomerase IV (Escherichia coli, UniProt P20083); test: In vitro enzyme inhibition, topoisomerase IV decatenation kit (Inspiralis); assay type: biochemical
T1 construct: purchased Inspiralis
Experimental: (§3) This test was performed at the Confirmatory Diagnostic Unit, VACSERA, Egypt.
(§4) The screening performed against E. coli DNA gyrase B, E. coli Topoisomerase IV and dihydrofolate reductase enzymes.

[9] = target: T2, dihydrofolate reductase (DHFR) (Homo sapiens, UniProt P00374); test: Dihydrofolate reductase inhibitor screening kit (colorimetric, BioVision); assay type: biochemical; conditions: read-out: IC50 (mean ± SEM)
T2 construct: purchased Bio Vision
T2 sequence (P00374 1-187): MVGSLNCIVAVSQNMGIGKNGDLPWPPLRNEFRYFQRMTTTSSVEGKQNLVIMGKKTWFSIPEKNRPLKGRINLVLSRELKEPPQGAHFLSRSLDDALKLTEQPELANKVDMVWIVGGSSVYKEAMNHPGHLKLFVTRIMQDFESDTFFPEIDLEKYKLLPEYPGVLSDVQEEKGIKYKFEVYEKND
Experimental: as §3, §4

E. coli DNA gyrase B = target: T3, E. coli DNA gyrase B (Escherichia coli, UniProt P0AES6); test: In vitro enzyme inhibition, DNA gyrase microplate assay kit (Inspiralis); assay type: biochemical
T3 construct: purchased Inspiralis
Experimental: as §3, §4

[10] = tested on: Pseudomonas aeruginosa ATCC 27853; test: Agar well diffusion, inhibition zone; assay type: cell-based; set-up: dose or concentration left out as unconfirmed; conditions: ATCC27853, P. aeruginosa ATCC 27853, NA = No Activity, read-out: Mean Diameter of Inhibition Zone (Mean ± SEM)
Source text: as §1, §2

[11] = tested on: Candida albicans ATCC 10231; test: Agar well diffusion, inhibition zone; assay type: cell-based; set-up: dose or concentration left out as unconfirmed; conditions: ATCC10231, C. albicans ATCC 10231, NA = No Activity, read-out: Mean Diameter of Inhibition Zone (Mean ± SEM)
Source text: as §1, §2

[12] = tested on: Aspergillus flavus ATCC 46283; test: Agar well diffusion, inhibition zone; assay type: cell-based; set-up: dose or concentration left out as unconfirmed; conditions: ATCC46283, A. flavus ATCC 46283, NA = No Activity, read-out: Mean Diameter of Inhibition Zone (Mean ± SEM)
Source text: as §1, §2

[13] = tested on: Escherichia coli ATCC 25922; test: Agar well diffusion, inhibition zone; assay type: cell-based; set-up: dose or concentration left out as unconfirmed; conditions: ATCC25922, E. coli ATCC 25922, NA = No Activity, read-out: Mean Diameter of Inhibition Zone (Mean ± SEM)
Source text: as §1, §2

[14] = MTT assay for cytotoxic activity; assay type: cell-based; conditions: African green monkey, Vero cells (normal kidney epithelial cell line), read-out: IC50 (Mean ± SEM), cytotoxic activity
Source text: (§5) The results are expressed as IC50 values (µM) and are depicted in Table 3.

[15] = tested on: human breast cancer (MCF-7) cells; test: MTT assay for cytotoxic activity; assay type: cell-based; conditions: Homo sapiens, MCF7, MCF-7 cells, read-out: IC50 (Mean ± SEM), cytotoxic activity
Source text: as §5

T1 sequence (P0AFI2 whole entry): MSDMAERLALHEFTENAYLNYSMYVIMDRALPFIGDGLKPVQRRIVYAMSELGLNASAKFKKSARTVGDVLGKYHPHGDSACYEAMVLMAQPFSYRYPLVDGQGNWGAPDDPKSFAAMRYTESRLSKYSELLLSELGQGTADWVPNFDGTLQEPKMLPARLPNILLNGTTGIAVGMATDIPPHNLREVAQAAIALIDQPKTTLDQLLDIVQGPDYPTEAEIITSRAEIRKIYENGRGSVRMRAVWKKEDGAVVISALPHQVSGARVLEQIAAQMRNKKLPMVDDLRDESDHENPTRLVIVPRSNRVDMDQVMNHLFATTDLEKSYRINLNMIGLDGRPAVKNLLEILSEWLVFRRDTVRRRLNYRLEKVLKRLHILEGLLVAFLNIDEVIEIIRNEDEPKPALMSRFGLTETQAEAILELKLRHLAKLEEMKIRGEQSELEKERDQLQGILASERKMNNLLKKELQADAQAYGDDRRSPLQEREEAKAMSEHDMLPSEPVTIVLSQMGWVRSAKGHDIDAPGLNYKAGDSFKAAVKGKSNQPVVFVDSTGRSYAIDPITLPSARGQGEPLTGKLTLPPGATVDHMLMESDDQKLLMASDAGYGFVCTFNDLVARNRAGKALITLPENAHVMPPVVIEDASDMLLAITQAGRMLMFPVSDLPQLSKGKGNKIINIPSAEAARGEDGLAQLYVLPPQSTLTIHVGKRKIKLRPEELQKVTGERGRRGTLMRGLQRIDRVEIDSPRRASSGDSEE
T1 sequence (P20083 whole entry): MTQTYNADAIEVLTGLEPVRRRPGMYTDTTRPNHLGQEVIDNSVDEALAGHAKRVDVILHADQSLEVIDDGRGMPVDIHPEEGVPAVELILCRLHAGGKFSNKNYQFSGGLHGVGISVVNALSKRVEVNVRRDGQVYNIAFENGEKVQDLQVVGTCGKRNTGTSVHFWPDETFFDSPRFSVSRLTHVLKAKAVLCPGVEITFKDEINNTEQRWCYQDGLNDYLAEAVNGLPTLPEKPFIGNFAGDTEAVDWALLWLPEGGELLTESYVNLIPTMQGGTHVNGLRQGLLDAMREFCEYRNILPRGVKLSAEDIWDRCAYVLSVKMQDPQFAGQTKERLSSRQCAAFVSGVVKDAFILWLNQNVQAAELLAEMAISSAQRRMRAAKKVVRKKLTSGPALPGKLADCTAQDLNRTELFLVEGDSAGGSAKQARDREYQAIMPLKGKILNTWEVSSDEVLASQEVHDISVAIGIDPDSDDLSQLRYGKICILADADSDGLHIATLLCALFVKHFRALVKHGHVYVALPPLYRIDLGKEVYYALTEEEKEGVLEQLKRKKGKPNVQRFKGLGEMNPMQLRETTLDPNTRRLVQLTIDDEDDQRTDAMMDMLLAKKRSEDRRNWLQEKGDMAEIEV

**Q.** With `N#CCC(=O)NNC(=S)NC(=O)Cc1ccccc1` [Compound 8, 1-(2-Cyanoacetyl)-4-phenylacetylthiosemicarbazide] as the molecule, how does the MIC [1] read?
**A.** 1.25 ± 0.5 µg/mL (≈ 4.52 µM)

**Q.** And the MIC [2]?
**A.** 39.8 ± 0.2 µg/mL (≈ 144 µM)

**Q.** And the MIC [3]?
**A.** 3.25 ± 1 µg/mL (≈ 11.8 µM)

**Q.** What about the MIC [4] of the same molecule?
**A.** 2.11 ± 0.51 µg/mL (≈ 7.64 µM)

**Q.** What about the MIC [5] of the same molecule?
**A.** 0.95 ± 0.22 µg/mL (≈ 3.44 µM)

**Q.** And the MIC [6]?
**A.** 1.38 ± 0.25 µg/mL (≈ 4.99 µM)

**Q.** What about the zone of inhibition [7] of the same molecule?
**A.** 39 ± 1.21 mm

**Q.** And the zone of inhibition [8]?
**A.** 42 ± 0.3 mm

**Q.** And the IC50 (E. coli Topoisomerase IV)?
**A.** 19.7 ± 1 µM

**Q.** What about the IC50 [9] of the same molecule?
**A.** 189.5 ± 1.06 µM

**Q.** And the IC50 (E. coli DNA gyrase B)?
**A.** 0.33 µM

**Q.** What about the zone of inhibition [10] of the same molecule?
**A.** 36 ± 0.12 mm

**Q.** What about the zone of inhibition [11] of the same molecule?
**A.** 18 ± 0.05 mm

**Q.** And the zone of inhibition [12]?
**A.** 27 ± 0.21 mm

**Q.** What about the zone of inhibition [13] of the same molecule?
**A.** 27 ± 0.62 mm

**Q.** What about the IC50 [14] of the same molecule?
**A.** 144.7 ± 0.36 µM

**Q.** And the IC50 [15]?
**A.** 22.4 ± 0.36 µM
